In the supplement of paper PMC13380429:

Tests used:
Settings in all cases: 72 h
[1] = system: Vero E6; assay: cell viability relative to DMSO; higher = less toxic
[2] = system: U2OS; assay: as above
[3] = system: Calu-3; assay: as above
[4] = system: HepG2; assay: as above
[5] = system: Caco-2; assay: as above
[6] = system: Vero E6; assay: relative viability EC50 (midpoint between 100% and the lowest measured viability); higher = less toxic
[7] = system: U2OS; assay: as above
[8] = system: Calu-3; assay: as above
[9] = system: HepG2; assay: as above
[10] = system: Caco-2; assay: as above
[11] = system: Vero E6; assay: drug sensitivity score (DSS) for viability; higher = more toxic; extreme values may be limits of the assay
[12] = system: U2OS; assay: as above
[13] = system: Calu-3; assay: as above
[14] = system: HepG2; assay: as above
[15] = system: Caco-2; assay: as above

Compound	cell viability ([1]; 1 nM) [%]	cell viability ([1]; 10 nM) [%]	cell viability ([1]; 100 nM) [%]	cell viability ([1]; 1000 nM) [%]	cell viability ([1]; 10000 nM) [%]	cell viability ([2]; 1 nM) [%]	cell viability ([2]; 10 nM) [%]	cell viability ([2]; 100 nM) [%]	cell viability ([2]; 1000 nM) [%]	cell viability ([2]; 10000 nM) [%]	cell viability ([3]; 1 nM) [%]	cell viability ([3]; 10 nM) [%]	cell viability ([3]; 100 nM) [%]	cell viability ([3]; 1000 nM) [%]	cell viability ([3]; 10000 nM) [%]	cell viability ([4]; 1 nM) [%]	cell viability ([4]; 10 nM) [%]	cell viability ([4]; 100 nM) [%]	cell viability ([4]; 1000 nM) [%]	cell viability ([4]; 10000 nM) [%]	cell viability ([5]; 1 nM) [%]	cell viability ([5]; 10 nM) [%]	cell viability ([5]; 100 nM) [%]	cell viability ([5]; 1000 nM) [%]	cell viability ([5]; 10000 nM) [%]	relative viability EC50 [6] [µM]	relative viability EC50 [7] [µM]	relative viability EC50 [8] [µM]	relative viability EC50 [9] [µM]	relative viability EC50 [10] [µM]	drug sensitivity score [11]	drug sensitivity score [12]	drug sensitivity score [13]	drug sensitivity score [14]	drug sensitivity score [15]
N=C(N)NC(=O)Cc1c(Cl)cccc1Cl [guanfacine]	93.8	105	101	104	89.8	102	93.1	104	97.4	100	92.7	83.6	98.9	91.7	99.1	88.5	95.2	93.3	94	101	93.9	95.7	110	104	100	> 10	> 10	> 10	> 10	> 10	0	0	0	0	0
NCCc1c[nH]cn1 [histamine]	99.4	98.2	93.5	97.5	104	94.9	99.7	97.5	103	102	99.4	100	101	95.7	109	100	102	103	100	97.5	90.8	105	101	110	104	> 10	> 10	> 10	> 10	> 10	0	0	0	0	0
C[C@]12CCC(=O)C=C1CC[C@@H]1[C@@H]2[C@@H](O)C[C@@]2(C)[C@H]1CC[C@]2(O)C(=O)COP(=O)(O)O [hydrocortisone-phosphate]	106	100	106	100	104	101	101	97.1	100	95	98.3	102	98.5	99.8	93.8	99.2	99.8	105	89.5	94.3	100	101	103	110	94.1	> 10	> 10	> 10	> 10	> 10	0	0	0	0.1	0
NC(=O)NO [hydroxyurea]	95.6	101	101	97.1	112	97.1	98.2	102	96	99.8	104	89.4	99	103	95.2	106	81.9	125	115	103	96.5	87	103	77.9	94.1	> 10	> 10	> 10	> 10	> 10	0	0	0	0	0.1
CCC(C)n1ncn(-c2ccc(N3CCN(c4ccc(OCC5COC(Cn6cncn6)(c6ccc(Cl)cc6Cl)O5)cc4)CC3)cc2)c1=O (stereo not given) [itraconazole]	92.9	87.4	87.2	87.9	108	92.1	99.5	93.9	102	109	91.1	102	101	104	98.6	92.7	94.9	101	92.7	97.6	103	101	111	99.7	97.2	> 10	> 10	> 10	> 10	> 10	0	0	0	0	0
CC1(C)Oc2ccc(C#N)cc2[C@@H](N2CCCC2=O)[C@@H]1O [levcromakalim]	92.1	96.6	97.1	97.2	93.7	103	102	99.4	98	101	85.7	105	91.8	104	102	109	105	98	101	96.2	96.5	99.7	99.1	88.5	99.6	> 10	> 10	> 10	> 10	> 10	0	0	0	0	0
Clc1cccc(C(c2ccc3[nH]cnc3c2)n2ccnc2)c1 (stereo not given) [liarozole]	94.2	90.5	94.8	94.8	95	97.8	95	95.5	93.9	96.3	99	96.1	93.8	103	101	99.6	104	99.3	111	89.3	97.2	87.8	98.7	93.9	85.4	> 10	> 10	> 10	> 10	> 10	0	0	0	0	0
CC(=O)N(C)c1cc(-c2ccnc3c(C(=O)c4cccs4)cnn23)ccc1F [lorediplon]	97.9	98.9	93.9	96.3	91	99.2	97	97	96.7	96.6	90.8	106	98.6	104	99.6	94	107	95.6	96.1	80	100	93.9	87.5	95.1	88.1	> 10	> 10	> 10	> 10	> 10	0	0	0	1.1	0.3
CN1CCc2c(c3ccccc3n2Cc2ccccc2)C1 [mebhydrolin]	106	99.4	99.9	94.1	89.6	96.5	102	98.5	98.2	95.3	106	95.8	106	104	104	94.3	102	106	77	94.2	90.3	92.8	90.4	101	100	> 10	> 10	> 10	> 10	> 10	0	0	0	3.1	0
Cc1cccc(C)c1NC(=O)C1CCCCN1C (stereo not given) [mepivacaine]	96.3	91.4	99.2	103	107	98	95.8	99.4	97.4	104	89.7	97.8	93.9	99.6	103	96.8	107	105	115	104	92.1	81.4	102	90.6	108	> 10	> 10	> 10	> 10	> 10	0	0	0	0	0
COc1ccc(O)cc1 [mequinol]	96.8	94.1	105	103	95.3	100	109	96.8	98.7	101	104	100	105	94.9	92.8	103	90	85.6	92.9	79.7	97.8	98.5	105	104	97.9	> 10	> 10	> 10	> 10	> 10	0	0	0	1.7	0
O=C(O)CC(S)C(=O)O (stereo not given) [mercaptosuccinic-acid]	96.1	99.8	96.8	97.4	99.3	103	104	94.3	102	96.2	102	101	93.5	94.7	97.7	93.1	93.7	94.9	96.3	92.7	94	106	91.2	95.7	99.7	> 10	> 10	> 10	> 10	> 10	0	0	0	0	0
CC[N+](C)(CC)CCOC(=O)C1c2ccccc2Oc2ccccc21 [methantheline]	95.3	97	94.4	93.2	93.8	99.1	100	100	104	97.8	99.9	96.2	103	106	88.9	102	88.7	97.9	79.8	97.5	91.6	108	89.1	99	96.3	> 10	> 10	> 10	> 10	> 10	0	0	0	0	0
O=C(O)[C@H](CC(=O)N1C[C@H]2CCCC[C@H]2C1)Cc1ccccc1 [mitiglinide]	98.4	104	101	98.5	103	92.2	104	95.3	116	96.4	86.3	93	88.2	92.8	104	98.2	84.2	91.5	94.6	104	99.9	96.4	95	101	94.9	> 10	> 10	> 10	> 10	> 10	0	0	0	0	0
